Test results published in patent publication US12545677B2, “Compounds useful as factor XIa inhibitors” (JANSSEN PHARMACEUTICA NV, priority 2020, dated 2026).
Like-named read-outs stand apart in the source and are kept apart here.

Columns and labels:
human hepatocytes = assay: In vitro metabolism in human cryopreserved hepatocytes; type: in vitro ADME
Protocol: In Vitro Metabolism of in Human Cryopreserved Hepatocytes
The human hepatocytes used for in vitro metabolism of the compound of formula (I-A) were purchased from Bioreclamation IVT (Westbury, NY); cryopreserved human hepatocytes (lot number: UYG).
Cryopreserved hepatocytes were rapidly thawed […] vials were placed in a 37° C. water bath for approximately 90 sec, then immediately added to pre-warmed hepatocyte thawing media. The cells were resuspended within the media and then centrifuged at 700×g for 7 minutes at room temperature.
The supernatant was discarded, and the cells were resuspended in 2 mL of Krebs-Henseleit buffer containing 12.5 mM HEPES pH 7.4 (KHB). Cell viability and yield were determined by Trypan Blue exclusion. The hepatocytes were then diluted in KHB to a cell concentration of 2×10^6 cells/mL (500 μL/well in 10 mL glass tubes). The tubes were placed on a rotary shaker in a humidifier incubator supplied with 5% CO2 and allowed 15 minutes acclimation at 37° C. prior to use. The compound of formula (I-A) or positive control, diclofenac (10 μM), in KHB was then added to the hepatocytes to achieve a final concentration of 10 μM and cell concentration of 1×10^6 cells/mL (1000 μL final incubation volume). Cells were incubated for zero or 3 hours. At the end of the incubation period, the cells were quenched with 6-volumes of ice-cold acetonitrile containing 0.02% formic acid, vortexed and sonicated (5 min). Precipitated proteins were pelleted by centrifugation (3000 rpm, 10 minutes, 4° C.) and the supernatant was transferred to borosilicate tubes and evaporated to dryness under a gentle stream of nitrogen.
The resulting residue after evaporation was reconstituted in 250 μL of water:acetonitrile (9:1 v/v) containing 0.01% formic acid with sonication and vortexing to aid solubilization of drug-derived materials prior to filtration using 0.45μ nylon filter at 10,000×g at room temperature for 10 minutes. The filtrate was transferred to a 96-well plate for liquid chromatography/ultraviolet/mass spectrometry (LC-UV/MS) analysis.
LC/UV/MS (Liquid Chromatography/Ultraviolet/Mass Spectrometry)
LTQ/Orbitrap (Thermo Scientific, Inc., Bremen, Germany) was carried out by data-dependent accurate mass measurements at resolving powers of 15,000 for full scan MS and 7,500 for MS^2 (also known as MS/MS or tandem mass spec) under single ion locked mass mode.
Quantification of the unchanged drug and its metabolites was carried out by integration of the individual chromatographically separated UV peaks and provided the percentage of total peak area.

Rat PK study = type: in vivo, Sprague-Dawley rats
Protocol: Biological Example 5: PK Studies
Animals: Male Sprague-Dawley rats (7-8 weeks old, body weight 250-300 g) were kept in plastic cages with free access to standard rat diet (Keaoxieli, Beijing, China) and water. The animals were maintained at a temperature of 20-25° C. with a 12-hour light/dark cycle and relative humidity of 40%-70% before the experiment.
Pharmacokinetics in rats: The cannulation of the jugular vein was pre-treated to the rats 2-3 days prior to the study. Test compound (dissolved in PEG400/water (1:1) or suspended in 0.5% HPMC) was administered orally via oral gavage at a dose of 5 or 10 mg/kg to 3 rats, and test compound (dissolved in 20% HPbCD or PEG400/water (1:1)) was injected to the tail vein at a dose of 1 or 2 mg/kg to 3 rats.
Blood samples (approximately 0.2 ml, each) were collected from the jugular vein at 0 (as a pre-dose), 5 (only for IV administration), 15, 30, 60, 120, 240, 360, 480 and 1440 mins post dose. A volume of 0.2 ml of heparinized 0.9% NaCl injectable solution (50 U/mL) was used to flush each cannula immediately after obtaining each blood sample, in order to prevent blood clotting and to compensate for fluid loss. Blood samples were separated by centrifugation, and approximately 0.1 ml aliquot of plasma was stored at −80° C. until analysis.
LC-MS/MS analysis: The analyte was assayed by a liquid chromatography coupled with tandem mass spectrometry (LC-MS/MS) method. The LC-MS/MS system consisted of a Shimadzu HPLC system (Kyoto, Japan) and API 5500 triple-quadrupole mass spectrometer equipped with a turbo electrospray ionization (ESI) source (AB Sciex, Toronto, Canada). LC conditions were as follows: column, Synergi 2.5μ Polar-RP 100A (50*3.0 mm) (Phenomenex, Torrance, CA); gradient elution at 0.5 mL/min with 5% acetonitrile in water containing 0.1% formic acid or 95% acetonitrile in water containing 0.1% formic acid; and injection volume, 10 μL. A multiple reaction monitoring (MRM) method was selected for quantitative analysis. The optimized transitions were Q1→Q3 and M1→M3 for analyte and internal standard, respectively. The instrumental parameters were set as follows: ion spray voltage: 5500 V; curtain gas: 30 psi; nebulizer gas: 50 psi; turbo gas: 50 psi; collision gas: 10 psi; temperature: 450° C.
Data analysis: Standard methods were used to calculate the pharmacokinetic parameters, such as the total area under the plasma concentration-time curve from time 0 to infinity (AUC0-t) and terminal half-life, using non-compartmental analysis (WinNonlin), the peak plasma concentration (Cmax) and time to reach Cmax (Tmax) were determined directly from the experimental data.

| identified as metabolite of the compound of formula (I-A) (human hepatocytes; human hepatocytes, carboxylic acid metabolite) | SMILES | turnover in human hepatocytes (human hepatocytes; 10 μM, 1×10^6 cells/mL, 3 hours) | major metabolic softspot (human hepatocytes; human hepatocytes) | metabolites generated from the incubation (human hepatocytes; human hepatocytes, 10 μM, 3 hours) | F (Rat PK study; formulation vehicle: 0.5% HPMC at 10 mg/kg) | clearance (Rat PK study; male, Sprague-Dawley, plasma, IV, 20% HPbCD at 2 mg/kg) [mL/min/kg] | half-life (Rat PK study; male, Sprague-Dawley, plasma, IV, formulation vehicle: 20% HPbCD at 2 mg/kg, read-out: t1/2 (IV) (converted)) [h] | Cmax (Rat PK study; male, Sprague-Dawley, plasma, PO, 0.5% HPMC at 10 mg/kg) [ng/mL] | half-life (Rat PK study; male, Sprague-Dawley, plasma, PO, 0.5% HPMC at 10 mg/kg, read-out: t1/2 (PO) (converted)) [h] |
| --- | --- | --- | --- | --- | --- | --- | --- | --- | --- |
|  | O=C1C=C(c2c(-n3cnnn3)ccc(Cl)c2F)C[C@H]2CC[C@@H](c3ncc(-c4ccnc(CO)c4F)[nH]3)N12 [Compound of formula (I-A), (3S,8aR)-7-(3-Chloro-2-fluoro-6-(1H-tetrazol-1-yl)phenyl)-3-(5-(3-fluoro-2-(hydroxymethyl)pyridin-4-yl)-1H-imidazol-2-yl)-2,3,8,8a-tetrahydroindolizin-5(1H)-one] | low turnover | (3-fluoropyridin-2-yl) methanol moiety | three oxidative and two glucuronide metabolites | 53.4% (formulation vehicle: 0.5% HPMC at 10 mg/kg) | 19.6 | 3.25 | 3770 | 2.66 |
| a metabolite in human hepatocytes | O=C(O)c1nccc(-c2cnc([C@@H]3CC[C@@H]4CC(c5c(-n6cnnn6)ccc(Cl)c5F)=CC(=O)N43)[nH]2)c1F [Compound of formula (II-A), 4-(2-((3S,8aR)-7-(3-chloro-2-fluoro-6-(1H-tetrazol-1-yl)phenyl)-5-oxo-1,2,3,5,8,8a-hexahydroindolizin-3-yl)-1H-imidazol-5-yl)-3-fluoropicolinic acid] |  |  |  |  |  |  |  |  |
